We go through 27 compounds from US8012975B2, “Antitumoral analogs of ET-743” (Pharma Mar, S.A., priority 2000, dated 2011).

The test system of data set [1] is MEL-28. The data set can be described thus: Cytotoxic activity IC50, MEL-28. The following applies: Homo sapiens, SK-MEL-28, read-out: CYTOTOXIC ACTIVITIY IC50 (μM) MEL-28, MEL-28.
In data set [2] the test system is A-549. The data set can be described thus: Cytotoxic activity IC50, A-549. The note with it: Homo sapiens, A549, read-out: CYTOTOXIC ACTIVITIY IC50 (μM) A-549, A-549.
The nature of a further data set: in vitro. The following applies: African green monkey.
For data set [3], the system named is DU-145. The data set can be described thus: Cytotoxic activity IC50, DU-145. The note with it: Homo sapiens, DU-145, read-out: CYTOTOXIC ACTIVITIY IC50 (μM) DU-145, DU-145.
Data set [4] deals with P-388. The data set can be described thus: Cytotoxic activity IC50, P-388. The following applies: Mus musculus, P388, read-out: CYTOTOXIC ACTIVITIY IC50 (μM) P-388.
In data set [5] the test system is HT-29. The data set can be described thus: Cytotoxic activity IC50, HT-29. The note with it: Homo sapiens, HT-29, read-out: CYTOTOXIC ACTIVITIY IC50 (μM) HT-29, HT-29.
In data set [6] the test system is MEL-28.
Data set [7] has as its system P-388.
The test system of data set [8] is HT-29.
Data set [9] relates to DU-145.
For data set [10], the system named is A-549.

Like-named read-outs stand apart in the source and are kept apart here.

Consider `CCCCCC(=O)N[C@@H](C)C(=O)NC[C@H]1c2c(c(OC(C)=O)c(C)c3c2OCO3)CC2[C@H]3c4c(cc(C)c(OC)c4O)C[C@@H]([C@H](C#N)N21)N3C` (stereo partly shown), for which the IC50 with MEL-28 [1] amounted to 0.001 µM; with A-549 [2] it was 0.001 µM; in the data set “in vitro”, 1 nM; in the data set on DU-145 [3], 0.001 µM; with P-388 [4], 0.001 µM; in the data set on HT-29 [5], 0.001 µM.
`C=CCOc1c(C)c2c(c3c1CC1[C@H]4c5c(cc(C)c(OC)c5OCOC)C[C@@H]([C@H](C#N)N1[C@H]3COC(=O)CCc1ccccc1)N4C)OCO2` (stereo partly shown): the IC50 with MEL-28 [1] turned out to be 0.7 µM; in the data set with A-549 [2], 0.7 µM; in the data set “in vitro”, 700 nM; with DU-145 [3] it was 0.7 µM; in the data set on P-388 [4], 0.7 µM; with HT-29 [5] it was 0.7 µM.
On to `CCCC(=O)OC[C@H]1c2c(c(OC(C)=O)c(C)c3c2OCO3)CC2[C@H]3c4c(cc(C)c(OC)c4OCOC)C[C@@H]([C@H](C#N)N21)N3C` (stereo partly shown) [drawing 152], for which the IC50 in the data set on MEL-28 [6] (human) is 0.8 nM; with P-388 [7] it was 0.1 nM; in the data set on HT-29 [8] (human), 0.8 nM; in the data set on DU-145 [9] (human), 0.8 nM; with A-549 [10] (human) it was 0.8 nM.
For the compound `COC1=C(C)C(=O)C2=C3C1=NCC3N1C(C2)[C@H]2c3c(cc(C)c(OC)c3O)C[C@@H]([C@@H]1C#N)N2C` (stereo partly shown), the IC50 turned out to be 2.17 µM with MEL-28 [1]; 2.17 µM with A-549 [2]; 2170 nM in “in vitro”; 2.17 µM in the data set on P-388 [4]; 2.17 µM with HT-29 [5].
`COc1c(C)cc2c(c1O)[C@@H]1C3Cc4c(OC(C)=O)c(C)c5c(c4[C@H](CNC(=O)[C@@H](C)NC(=O)CC(C)C)N3[C@@H](C#N)[C@H](C2)N1C)OCO5` (stereo partly shown): the IC50 in the data set with MEL-28 [6], with P-388 [7], in the data set on HT-29 [8], with DU-145 [9] and in the data set with A-549 [10] was 0.1 nM in each case.
With `COc1c(C)cc2c(c1O)[C@@H]1C3Cc4c(OC(C)=O)c(C)c5c(c4[C@H](CNC(=O)[C@H](C)NC(=O)Cc4ccccc4)N3[C@@H](C#N)[C@H](C2)N1C)OCO5` (stereo partly shown), the IC50 in the data set with MEL-28 [6], with P-388 [7], with HT-29 [8], in the data set with DU-145 [9] and with A-549 [10] was 0.1 nM in each case.
For the compound `COc1c(C)cc2c(c1O)[C@@H]1C3Cc4c(OC(C)=O)c(C)c5c(c4[C@H](CNC(=O)CCc4ccccc4)N3[C@@H](C#N)[C@H](C2)N1C)OCO5` (stereo partly shown), the IC50 in the data set on MEL-28 [6], with P-388 [7], in the data set on HT-29 [8], in the data set with DU-145 [9] and in the data set on A-549 [10] was 0.1 nM in each case.
On to `C=CCOC(=O)Oc1c(C)c2c(c3c1CC1[C@H]4c5c(cc(C)c(OC)c5O)C[C@@H]([C@H](C#N)N1[C@H]3CNC(=O)/C=C/c1ccccc1)N4C)OCO2` (stereo partly shown), for which the IC50 with MEL-28 [6], with P-388 [7], with HT-29 [8], with DU-145 [9] and in the data set with A-549 [10] was 0.1 nM each time.
On to `CCC(=O)NC[C@H]1c2c(c(OC(C)=O)c(C)c3c2OCO3)CC2[C@H]3c4c(cc(C)c(OC)c4O)C[C@@H]([C@H](O)N21)N3C` (stereo partly shown) [drawing 125], for which the IC50 in the data set with MEL-28 [6], with P-388 [7], in the data set on HT-29 [8], in the data set with DU-145 [9] and with A-549 [10] was 0.1 nM each time.
For `COc1c(C)cc2c(c1O)[C@@H]1C3Cc4c(OC(C)=O)c(C)c5c(c4[C@H](CNC(=O)[C@H](C)NC(=O)C(F)(F)F)N3[C@@H](C#N)[C@H](C2)N1C)OCO5` (stereo partly shown), the IC50 with MEL-28 [6], in the data set on P-388 [7], in the data set on HT-29 [8], in the data set with DU-145 [9] and with A-549 [10] was 0.1 nM each time.
For `CCCCCC(=O)N[C@@H](C)C(=O)NC[C@H]1c2c(c(OC(C)=O)c(C)c3c2OCO3)CC2[C@H]3c4c(cc(C)c(OC)c4O)C[C@@H]([C@H](O)N21)N3C` (stereo partly shown), the IC50 came out at 0.001 µM in the data set on MEL-28 [1]; 0.001 µM in the data set on A-549 [2]; 1 nM in “in vitro”; 0.001 µM with DU-145 [3]; 0.001 µM in the data set on P-388 [4]; 0.001 µM in the data set on HT-29 [5].
On to `COC1=C(C)C(=O)C2=C(C1=O)[C@H](CNC(=O)C(C)N=CSNc1ccccc1)N1C(C2)[C@H]2c3c(cc(C)c(OC)c3O)C[C@@H]([C@@H]1C#N)N2C` (stereo partly shown), for which it took 18 nM to reach half-maximal inhibition in “in vitro” (IC50).
`COc1c(C)cc2c(c1O)[C@@H]1C3Cc4c(OC(C)=O)c(C)c5c(c4[C@H](CNC(=O)Cc4ccccc4)N3[C@@H](C#N)[C@H](C2)N1C)OCO5` (stereo partly shown): the IC50 with MEL-28 [6], with P-388 [7], with HT-29 [8], with DU-145 [9] and with A-549 [10] was 0.1 nM in each case.
`COC1=C(C)C(=O)C2=C(C1=O)[C@H](CNC(=O)C(C)N)N1C(C2)[C@H]2c3c(cc(C)c(OC)c3O)C[C@@H]([C@@H]1C#N)N2C` (stereo partly shown): in the data set “in vitro”, the IC50 stood at 23 nM.
For the compound `COc1c(C)cc2c(c1O)[C@@H]1C3Cc4c(OC(C)=O)c(C)c5c(c4[C@H](CNC(=O)/C=C/c4cccc(C(F)(F)F)c4)N3[C@@H](C#N)[C@H](C2)N1C)OCO5` (stereo partly shown), the IC50 with MEL-28 [6], in the data set on P-388 [7], in the data set on HT-29 [8], with DU-145 [9] and in the data set on A-549 [10] was 0.1 nM each time.
For `COCOc1c(OC)c(C)cc2c1[C@@H]1C3CC4=C(C(=O)C(OC)=C(C)C4=O)[C@H](CNC(C)=O)N3[C@@H](C#N)[C@H](C2)N1C` (stereo partly shown), the IC50 in the data set on MEL-28 [1] was found to be 0.22 µM; in the data set with A-549 [2], 0.22 µM; in “in vitro” it was 220 nM; in the data set on P-388 [4] it was 0.22 µM; with HT-29 [5], 0.22 µM.
Consider `C=CCOc1c(C)c2c(c3c1CC1[C@H]4c5c(cc(C)c(OC)c5OCOC)C[C@@H]([C@H](C#N)N1[C@H]3CNC(=O)OCC(Cl)(Cl)Cl)N4C)OCO2` (stereo partly shown), for which the IC50 was determined as 0.13 µM in the data set with MEL-28 [1]; 0.13 µM with A-549 [2]; 130 nM in the data set “in vitro”; 0.13 µM with P-388 [4]; 0.13 µM in the data set on HT-29 [5].
For the compound `C=CCOc1c(C)c2c(c3c1CC1[C@H]4c5c(cc(C)c(OC)c5O)C[C@@H]([C@H](C#N)N1[C@H]3CNC(=O)OCC(Cl)(Cl)Cl)N4C)OCO2` (stereo partly shown), the IC50 came to 0.014 µM in the data set on MEL-28 [1]; 0.014 µM in the data set with A-549 [2]; 14 nM in “in vitro”; 0.014 µM with P-388 [4]; 0.014 µM in the data set on HT-29 [5].
In the case of `COc1c(C)cc2c(c1O)[C@@H]1C3Cc4c(OC(C)=O)c(C)c5c(c4[C@H](CNC(=O)[C@H](C)NC(=O)CCc4ccccc4)N3[C@@H](O)[C@H](C2)N1C)OCO5` (stereo partly shown) [drawing 135], the IC50 in the data set on MEL-28 [6], in the data set on P-388 [7], in the data set with HT-29 [8], in the data set with DU-145 [9] and in the data set with A-549 [10] was 0.1 nM in each case.
For `COC1=C(C)C(=O)C2=C(C1=O)[C@H](CNC(=O)[C@H](C)NC(=O)C(F)(F)F)N1C(C2)[C@H]2c3c(cc(C)c(OC)c3O)C[C@@H]([C@@H]1C#N)N2C` (stereo partly shown), the IC50 with MEL-28 [1] came out at 0.01 µM; in the data set on A-549 [2] it was 0.01 µM; in “in vitro” it was 100 nM; with DU-145 [3] it was 0.01 µM; in the data set with P-388 [4], 0.01 µM; with HT-29 [5] it was 0.01 µM.
For the compound `CCCCCC(=O)NC[C@H]1c2c(c(OC(C)=O)c(C)c3c2OCO3)CC2[C@H]3c4c(cc(C)c(OC)c4O)C[C@@H]([C@H](C#N)N21)N3C` (stereo partly shown) [drawing 120], the IC50 in “in vitro”, in the data set with MEL-28 [6], with P-388 [7], with HT-29 [8], in the data set with DU-145 [9] and in the data set with A-549 [10] was 0.1 nM throughout.
In the case of `C=CCOc1c(C)c2c(c3c1CC1[C@H]4c5c(cc(C)c(OC)c5OCOC)C[C@@H]([C@H](C#N)N1[C@H]3CN)N4C)OCO2` (stereo partly shown), the IC50 was 1.8 µM in the data set with MEL-28 [1]; 1.8 µM with A-549 [2]; 1800 nM in “in vitro”; 1.8 µM with DU-145 [3]; 1.8 µM with HT-29 [5].
On to `C/C=C(\OC(C)=O)C1=C(C2=COCO2)[C@H](CNC(=O)CCC)N2C(C1)[C@H]1c3c(cc(C)c(OC)c3O)C[C@@H]([C@@H]2C#N)N1C` (stereo partly shown), for which the IC50 in the data set on MEL-28 [6], in the data set with P-388 [7], in the data set with HT-29 [8], with DU-145 [9] and with A-549 [10] was 0.1 nM in each case.
With `COc1c(C)cc2c(c1O)[C@@H]1C3Cc4c(O)c(C)c5c(c4[C@H](CN4C(=O)c6ccccc6C4=O)N3[C@@H](C#N)[C@H](C2)N1C)OCO5` (stereo partly shown), in “in vitro”, the IC50 is 1 nM.
`COc1c(C)cc2c(c1O)[C@@H]1C3Cc4c(OC(C)=O)c(C)c5c(c4[C@H](COC(=O)CCc4ccccc4)N3[C@@H](O)[C@H](C2)N1C)OCO5` (stereo partly shown) [drawing 158]: the IC50 with MEL-28 [6], in the data set with P-388 [7], in the data set on HT-29 [8], in the data set on DU-145 [9] and with A-549 [10] was 0.1 nM each time.
`COCOc1c(OC)c(C)cc2c1[C@@H]1C3CC4=C(C(=O)C(O)=C(C)C4=O)[C@H](CNC(C)=O)N3[C@@H](C#N)[C@H](C2)N1C` (stereo partly shown) showed an IC50 in “in vitro” above 18100 nM.
As for `CCC(=O)N[C@@H](C)C(=O)NC[C@H]1c2c(c(OC(C)=O)c(C)c3c2OCO3)CC2[C@H]3c4c(cc(C)c(OC)c4O)C[C@@H]([C@H](O)N21)N3C` (stereo partly shown) [drawing 138], the IC50 with MEL-28 [6], in the data set on P-388 [7], in the data set with HT-29 [8], in the data set with DU-145 [9] and with A-549 [10] was 0.1 nM each time.
